Legend:
CDK9 [1] = biological target: T1, CDK9 (Homo sapiens, UniProt P50750); assay: CDK9 degradation by HiBit assay, NCIH211 cells; assay type: cell-based; settings: NCIH211 cells with endogenously tagged N-terminal CDK9-HiBit, 24 hours incubation; read-out: HiBit-NCIH211.2 DC50
T1 construct: NCIH211 cells with endogenously tagged N-terminal CDK9-HiBit; endogenous in cells; host or cells: NCIH211 cells (endogenous CDK9 locus tagged with HiBit)
Experimental: (§1) Exemplary compounds of the invention were tested for degradation of CDK9. The compounds were tested in 10-dose DC50 duplicate mode with a 3-fold serial dilution starting at 10 μM by HiBit assay (Promega, Inc) as a direct measurement of CDK9 presence, with incubation time of 24 hours using either NCIH211 cells with endogenously tagged N-terminal CDK9-HiBit or NCIH1048 cells with endogenously tagged N-terminal CDK9-HiBit. A control compound (THAL-SNS-032, CAS 2139287-33-3) was tested in 10-dose DC50 mode with 3-fold serial dilution starting at 10 μM. Data was normalized to positive (medium only) and negative (cells with no treatment) controls and curve fits were analyzed with CDK9 as % response vs. log [compound concentration] using a 4-parameter logistic model by GraphPad software. For Table 2: A is <100, B is <1000 C is <10,000, D is >10,000 and ND is Not Determined.

CDK9 [2] = biological target: T1, CDK9; assay: CDK9 degradation by HiBit assay, NCIH1048 cells; assay type: cell-based; settings: NCIH1048 cells with endogenously tagged N-terminal CDK9-HiBit, 24 hours incubation; read-out: HiBit-NCIH1048.3 DC50
Experimental: as §1

T1 sequence (P50750 whole entry): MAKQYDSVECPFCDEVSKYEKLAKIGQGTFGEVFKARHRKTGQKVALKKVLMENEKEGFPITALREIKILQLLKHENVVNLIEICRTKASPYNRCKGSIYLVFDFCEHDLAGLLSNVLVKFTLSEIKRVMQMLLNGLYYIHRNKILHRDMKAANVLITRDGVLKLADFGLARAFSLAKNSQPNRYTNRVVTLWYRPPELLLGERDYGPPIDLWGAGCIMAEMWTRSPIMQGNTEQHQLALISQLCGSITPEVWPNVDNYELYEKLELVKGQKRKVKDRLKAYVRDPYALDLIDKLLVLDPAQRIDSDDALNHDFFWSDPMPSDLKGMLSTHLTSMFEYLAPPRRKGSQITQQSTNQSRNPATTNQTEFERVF
T1 sequence (O60563 whole entry partner): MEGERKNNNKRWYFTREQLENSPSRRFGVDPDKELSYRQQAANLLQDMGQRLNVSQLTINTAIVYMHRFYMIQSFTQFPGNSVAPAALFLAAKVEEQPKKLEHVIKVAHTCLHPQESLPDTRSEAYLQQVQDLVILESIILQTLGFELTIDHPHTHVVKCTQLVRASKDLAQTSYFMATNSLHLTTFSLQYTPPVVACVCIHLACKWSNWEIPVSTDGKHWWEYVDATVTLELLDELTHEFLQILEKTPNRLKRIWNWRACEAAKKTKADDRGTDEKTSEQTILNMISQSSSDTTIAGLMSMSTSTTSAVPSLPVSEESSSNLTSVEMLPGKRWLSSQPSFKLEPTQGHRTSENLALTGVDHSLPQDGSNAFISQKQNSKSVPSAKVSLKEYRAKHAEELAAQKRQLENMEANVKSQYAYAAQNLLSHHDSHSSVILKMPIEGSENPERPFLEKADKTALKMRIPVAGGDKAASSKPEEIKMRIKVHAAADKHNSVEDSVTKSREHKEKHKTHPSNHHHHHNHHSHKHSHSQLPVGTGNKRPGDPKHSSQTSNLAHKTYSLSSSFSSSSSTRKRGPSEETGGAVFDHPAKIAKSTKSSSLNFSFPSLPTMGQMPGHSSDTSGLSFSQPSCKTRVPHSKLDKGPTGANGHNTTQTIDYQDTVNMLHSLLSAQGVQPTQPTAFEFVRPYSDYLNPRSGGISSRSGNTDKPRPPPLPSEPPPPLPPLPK

Row | SMILES | DC50 (CDK9 [1]) | DC50 (CDK9 [2])
1 | CCC(CC)c1cc(N[C@H]2CC[C@H](NCC(=O)NCCOCCOCCOCCNc3cccc4c3C(=O)N(C3CCC(=O)NC3=O)C4=O)C2)n2nccc2n1 (stereo partly drawn) [Compound 5.0, N-[2-[2-[2-[2-[[2-(2,6-dioxo-3-piperidyl)-1,3-dioxo-isoindolin-4-yl]amino]ethoxy]ethoxy]ethoxy]ethyl]-2-[[(1S,3S)-3-[[5-(1-ethylpropyl)pyrazolo[1,5-a]pyrimidin-7-yl]amino]cyclopentyl]amino]acetamide] | < 10 µM | < 1000 nM
2 | CCC(CC)c1cc(N[C@H]2CC[C@H](NCC(=O)NCCOCCOCCOCCNc3cccc4c3C(=O)N(C3CCC(=O)NC3=O)C4=O)C2)n2ncc(Cl)c2n1 (stereo partly drawn) [Compound 6.0, N-[2-[2-[2-[2-[[2-(2,6-dioxo-3-piperidyl)-1,3-dioxo-isoindolin-4-yl]amino]ethoxy]ethoxy]ethoxy]ethyl]-2-[[(1S,3S)-3-[[3-chloro-5-(1-ethylpropyl)pyrazolo[1,5-a]pyrimidin-7-yl]amino]cyclopentyl]amino]acetamide] | < 1 µM | < 100 nM
3 | C/C=C(\CC)c1cc(N[C@H]2CC[C@H](NCC(=O)N3CCN(CCCNc4cccc5c4C(=O)N(C4CCC(=O)NC4=O)C5=O)CC3)C2)n2nccc2n1 (stereo partly drawn) [Compound 21.0, 2-(2,6-dioxo-3-piperidyl)-4-[3-[4-[2-[[(1S,3S)-3-[[5-[(E)-1-ethylprop-1-enyl]pyrazolo[1,5-a]pyrimidin-7-yl]amino]cyclopentyl]amino]acetyl]piperazin-1-yl]propylamino]isoindoline-1,3-dione] | < 0.1 µM | < 100 nM
4 | CCC(CC)c1cc(N[C@H]2CC[C@H](NCC(=O)NCc3cn(CCOCCOCCOCC(=O)N[C@H](C(=O)N4C[C@H](O)C[C@H]4C(=O)NCc4ccc(-c5scnc5C)cc4)C(C)(C)C)nn3)C2)n2nccc2n1 [Compound 27.0] | > 10 µM | –
5 | CCC(CC)c1cc(N[C@H]2CC[C@H](NCC(=O)NCc3cn(CCOCCOCCOCCOCC(=O)N[C@H](C(=O)N4C[C@H](O)C[C@H]4C(=O)NCc4ccc(-c5scnc5C)cc4)C(C)(C)C)nn3)C2)n2nccc2n1 [Compound 28.0] | > 10 µM | –
6 | CCC(CC)c1cc(N[C@H]2CC[C@H](NCC(=O)NCc3cn(CCOCCOc4cc(-c5scnc5C)ccc4CNC(=O)[C@@H]4C[C@@H](O)CN4C(=O)[C@H](C(C)C)N4Cc5ccccc5C4=O)nn3)C2)n2nccc2n1 [Compound 29.0] | > 10 µM | –
7 | CCC(CC)c1cc(N[C@H]2CC[C@H](NCC(=O)NCc3cn(CCOCCOCCOCCOc4cc(-c5scnc5C)ccc4CNC(=O)[C@@H]4C[C@@H](O)CN4C(=O)[C@H](C(C)C)N4Cc5ccccc5C4=O)nn3)C2)n2nccc2n1 [Compound 31.0] | > 10 µM | –
8 | CCC(CC)c1cc(N[C@H]2CC[C@H](NCC(=O)NCc3cn(CCOCCOCCOCCOCCOc4cc(-c5scnc5C)ccc4CNC(=O)[C@@H]4C[C@@H](O)CN4C(=O)[C@H](C(C)C)N4Cc5ccccc5C4=O)nn3)C2)n2nccc2n1 [Compound 32.0] | > 10 µM | –
9 | CCC(CC)c1cc(N[C@H]2CC[C@H](NCc3cn(CCOCC(=O)N[C@H](C(=O)N4C[C@H](O)C[C@H]4C(=O)NCc4ccc(-c5scnc5C)cc4)C(C)(C)C)nn3)C2)n2nccc2n1 [Compound 33.0] | > 10 µM | –
10 | CCC(CC)c1cc(N[C@H]2CC[C@H](NCc3cn(CCOCCOCC(=O)N[C@H](C(=O)N4C[C@H](O)C[C@H]4C(=O)NCc4ccc(-c5scnc5C)cc4)C(C)(C)C)nn3)C2)n2nccc2n1 [Compound 34.0] | > 10 µM | –
11 | CCC(CC)c1cc(N[C@H]2CC[C@H](NCc3cn(CCOCCOCCOCC(=O)N[C@H](C(=O)N4C[C@H](O)C[C@H]4C(=O)NCc4ccc(-c5scnc5C)cc4)C(C)(C)C)nn3)C2)n2nccc2n1 [Compound 35.0] | > 10 µM | –
12 | CCC(CC)c1cc(N[C@H]2CC[C@H](NCc3cn(CCOCCOCCOCCOCC(=O)N[C@H](C(=O)N4C[C@H](O)C[C@H]4C(=O)NCc4ccc(-c5scnc5C)cc4)C(C)(C)C)nn3)C2)n2nccc2n1 [Compound 36.0] | > 10 µM | –
13 | CCC(CC)c1cc(N[C@H]2CC[C@H](NCc3cn(CCOCCOc4cc(-c5scnc5C)ccc4CNC(=O)[C@@H]4C[C@@H](O)CN4C(=O)[C@H](C(C)C)N4Cc5ccccc5C4=O)nn3)C2)n2nccc2n1 [Compound 37.0] | > 10 µM | –
14 | CCC(CC)c1cc(N[C@H]2CC[C@H](NCc3cn(CCOCCOCCOc4cc(-c5scnc5C)ccc4CNC(=O)[C@@H]4C[C@@H](O)CN4C(=O)[C@H](C(C)C)N4Cc5ccccc5C4=O)nn3)C2)n2nccc2n1 [Compound 38.0] | > 10 µM | –
15 | CCC(CC)c1cc(N[C@H]2CC[C@H](NCc3cn(CCOCCOCCOCCOc4cc(-c5scnc5C)ccc4CNC(=O)[C@@H]4C[C@@H](O)CN4C(=O)[C@H](C(C)C)N4Cc5ccccc5C4=O)nn3)C2)n2nccc2n1 [Compound 39.0] | > 10 µM | –
16 | CCC(CC)c1cc(N[C@H]2CC[C@H](NCc3cn(CCOCCOCCOCCOCCOc4cc(-c5scnc5C)ccc4CNC(=O)[C@@H]4C[C@@H](O)CN4C(=O)[C@H](C(C)C)N4Cc5ccccc5C4=O)nn3)C2)n2nccc2n1 [Compound 40.0] | > 10 µM | –

Row | SMILES | DC50 (CDK9 [1]) | DC50 (CDK9 [2])
17 | CCC(CC)c1cc(N[C@H]2CC[C@H](NCC(=O)NCCCc3cn(CCOCCOCCOCCOCC(=O)N[C@H](C(=O)N4C[C@H](O)C[C@H]4C(=O)NCc4ccc(-c5scnc5C)cc4)C(C)(C)C)nn3)C2)n2ncc(Cl)c2n1 [Compound 41.0] | > 10 µM | –
18 | CCC(CC)c1cc(N[C@H]2CC[C@H](NCC(=O)NCCCc3cn(CCOCCOCCOCC(=O)N[C@H](C(=O)N4C[C@H](O)C[C@H]4C(=O)NCc4ccc(-c5scnc5C)cc4)C(C)(C)C)nn3)C2)n2ncc(Cl)c2n1 [Compound 42.0] | > 10 µM | –
19 | CCC(CC)c1cc(N[C@H]2CC[C@H](NCC(=O)NCCCc3cn(CCOCC(=O)N[C@H](C(=O)N4C[C@H](O)C[C@H]4C(=O)NCc4ccc(-c5scnc5C)cc4)C(C)(C)C)nn3)C2)n2ncc(Cl)c2n1 [Compound 43.0] | > 10 µM | –
20 | CCC(CC)c1cc(N[C@H]2CC[C@H](NCC(=O)NCCCc3cn(CCOCCOCC(=O)N[C@H](C(=O)N4C[C@H](O)C[C@H]4C(=O)NCc4ccc(-c5scnc5C)cc4)C(C)(C)C)nn3)C2)n2ncc(Cl)c2n1 [Compound 44.0] | > 10 µM | –
21 | CCC(CC)c1cc(N[C@H]2CC[C@H](NCC(=O)N3CCN(CCCCNc4cccc5c4C(=O)N(C4CCC(=O)NC4=O)C5=O)CC3)C2)n2ncc(Cl)c2n1 (stereo partly shown) [Compound 45.0] | < 0.1 µM | < 100 nM
22 | CCC(CC)c1cc(N[C@H]2CC[C@H](NCC(=O)N3CCN(CCCCNc4cccc5c4C(=O)N(C4CCC(=O)NC4=O)C5=O)CC3)C2)n2nccc2n1 (stereo partly shown) [Compound 46.0] | < 1 µM | < 100 nM
23 | CCC(CC)c1cc(N[C@H]2CC[C@H](NCC(=O)N3CCN(CCNc4cccc5c4C(=O)N(C4CCC(=O)NC4=O)C5=O)CC3)C2)n2nccc2n1 (stereo partly shown) [Compound 47.0] | < 1 µM | < 100 nM
24 | CCC(CC)c1cc(N[C@H]2CC[C@H](NCC(=O)N3CCN(CCCNc4cccc5c4C(=O)N(C4CCC(=O)NC4=O)C5=O)CC3)C2)n2nccc2n1 (stereo partly shown) [Compound 48.0] | < 1 µM | < 100 nM
25 | CCC(CC)c1cc(N[C@H]2CC[C@H](NCC(=O)N3CCN(CCNc4cccc5c4C(=O)N(C4CCC(=O)NC4=O)C5=O)CC3)C2)n2ncc(Cl)c2n1 (stereo partly shown) [Compound 49.0] | < 0.1 µM | –
26 | CCC(CC)c1cc(N[C@H]2CC[C@H](NCC(=O)N3CCN(CCCNc4cccc5c4C(=O)N(C4CCC(=O)NC4=O)C5=O)CC3)C2)n2ncc(Cl)c2n1 (stereo partly shown) [Compound 50.0] | < 0.1 µM | < 100 nM
27 | CCC(CC)c1cc(N[C@H]2CC[C@H](NCC(=O)NCCCc3cn(CCOCCOCCOc4cc(-c5scnc5C)ccc4CNC(=O)[C@@H]4C[C@@H](O)CN4C(=O)[C@H](C(C)C)N4Cc5ccccc5C4=O)nn3)C2)n2ncc(Cl)c2n1 [Compound 51.0] | < 10 µM | < 10000 nM
28 | CCC(CC)c1cc(N[C@H]2CC[C@H](NCC(=O)NCCCc3cn(CCOCCOc4cc(-c5scnc5C)ccc4CNC(=O)[C@@H]4C[C@@H](O)CN4C(=O)[C@H](C(C)C)N4Cc5ccccc5C4=O)nn3)C2)n2ncc(Cl)c2n1 [Compound 52.0] | > 10 µM | < 10000 nM
29 | CCC(CC)c1cc(N[C@H]2CC[C@H](NCC(=O)NCCCc3cn(CCOCCOCCOCCOc4cc(-c5scnc5C)ccc4CNC(=O)[C@@H]4C[C@@H](O)CN4C(=O)[C@H](C(C)C)N4Cc5ccccc5C4=O)nn3)C2)n2ncc(Cl)c2n1 [Compound 53.0] | < 10 µM | < 10000 nM
30 | CCC(CC)c1cc(N[C@H]2CC[C@H](NCC(=O)NCCCc3cn(CCOCCOCCOCCOCCOc4cc(-c5scnc5C)ccc4CNC(=O)[C@@H]4C[C@@H](O)CN4C(=O)[C@H](C(C)C)N4Cc5ccccc5C4=O)nn3)C2)n2ncc(Cl)c2n1 [Compound 54.0] | < 10 µM | < 10000 nM
31 | C/C=C(\CC)c1cc(N[C@H]2CC[C@H](NCC(=O)N3CCN(CCCCNc4cccc5c4C(=O)N(C4CCC(=O)NC4=O)C5=O)CC3)C2)n2nccc2n1 (stereo partly shown) [Compound 56.0] | < 0.1 µM | < 100 nM
32 | C/C=C(\CC)c1cc(N[C@H]2CC[C@H](NCC(=O)N3CCN(CCCNc4cccc5c4C(=O)N(C4CCC(=O)NC4=O)C5=O)CC3)C2)n2ncc(Cl)c2n1 (stereo partly drawn) [Compound 57.0, 4-[3-[4-[2-[[(1S,3S)-3-[[3-chloro-5-[(E)-1-ethylprop-1-enyl]pyrazolo[1,5-a]pyrimidin-7-yl]amino]cyclopentyl]amino]acetyl]piperazin-1-yl]propylamino]-2-(2,6-dioxo-3-piperidyl)isoindoline-1,3-dione] | < 0.1 µM | < 100 nM

Source: patent publication US20250188084A1, “COMPOUNDS AND METHODS FOR MODULATING CDK9 ACTIVITY” (KRONOS BIO, INC., priority 2020, published 2025)
